These results are taken from PubChem BioAssay (NCI).

What all share (experiment): growth of human tumour cells (NCI), 48 h
Test [1] concerns HCT-15 colon.
Test [2] has as its system UACC-62 melanoma.
The test system of test [3] is OVCAR-8 ovarian.
Test [4] concerns MOLT-4 leukemia.
The test system of test [5] is OVCAR-4 ovarian.
Test [6] deals with OVCAR-3 ovarian.
The test system of test [7] is SK-MEL-2 melanoma.
Test [8] relates to UO-31 renal.
The subject of test [9] is IGROV1 ovarian.
Test [10] relates to K-562 leukemia.

Structures are written as SMILES.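 Step 1: Grow cells in 96-well plates. Step 2: Expose to compound for 48 hours at 5 concentrations. Step 3: Interpolate endpoints linearly; if unreached, use highest concentration. GI50 is the concentration that inhibits growth by half. TGI: total growth inhibition.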

For `CC[C@@]12CCCN3CC[C@]4(c5cccc(OC)c5N(C(C)=O)[C@@H]4CC1)[C@H]32`, the TGI in test [1] is > 100 µM; in [2], > 100 µM; in test [3], > 100 µM; in test [4], 61.3 µM; in test [5], > 100 µM; in test [6], > 100 µM. The TGI in test [7], in test [8] and in test [9] was > 100 µM in each case.

On to `CC(=O)N1[C@H](C(=O)O)CS[C@H]1c1ccncc1`, for which the TGI in test [1], in test [2], in test [3], in test [4], in test [5] and in [10] was > 100 µM in each case. The TGI in test [6], in [8] and in test [9] was > 100 µM in each case.

With `CCN(CC)CC(C(=O)Nc1c(C)cccc1C)/C(C)=N\NC(=O)C[N+](C)(C)C` (stereo not drawn), the TGI in [1], in test [2], in test [3], in test [4], in [5] and in [10] was > 100 µM in each case. Also, the TGI in test [6], in test [8] and in test [9] was > 100 µM each time.

On to `Oc1ccc(Cl)cc1-c1cc(-c2ccccc2Cl)[nH]n1`, for which the GI50 is 0.488 µM in test [1]; 5.29 µM in test [2]; 7.13 µM in test [3]; 5.38 µM in [4]; 0.28 µM in test [5]; 4.59 µM in test [10]. The GI50 was 2.37 µM in test [6], 3.77 µM in test [8] and 1.66 µM in test [9]. Moreover, the TGI in test [1], in test [2], in test [3], in test [4], in test [5] and in [10] was > 100 µM each time. Also, the TGI in test [6], in test [8] and in [9] was > 100 µM each time.

Take `FC(F)(F)c1ccc(C2SCc3nc4ccccc4n32)cc1` (stereo not drawn): the TGI in test [2], in test [3], in test [4], in [10], in test [7] and in test [8] was > 100 µM throughout. For the same compound, the TGI in [9] was > 100 µM.

In the case of `Cc1cnc(NC(=O)C(Cc2ccccc2)NC(=O)c2ccccc2)s1` (stereo not drawn), the GI50 in [1] was 2.63 µM; in [2] it was 1.45 µM; in test [3] it was 2.38 µM; in test [4], 24.1 µM; in test [5], 16.3 µM; in test [10], 37.2 µM. The results for the GI50 in [6] and in [8] were 11.3 µM and 3.98 µM, respectively. The TGI in test [1] was 8.9 µM; in test [2], 3.7 µM; in test [3] it was 9.16 µM; in test [4] it was 95.4 µM; in [5], > 100 µM; in test [10] it was > 100 µM. Further, the TGI was 25.8 µM in test [6] and 18.9 µM in test [8].

For the compound `NC(CCc1nc(-c2ccc(Cl)cc2)cs1)C(=O)O` (stereo not drawn), the TGI in [1], in test [2], in [3], in test [4], in [5] and in test [6] was > 100 µM each time. Besides, the TGI in test [7], in [8] and in test [9] was > 100 µM each time.

In the case of `CC(C)=CCCc1c(C)ccc2c1C(=O)C(=O)C(C(C)C)=C2`, the TGI in [1] was determined as 7.14 µM; in test [3] it was 7 µM; in test [4] it was 20 µM; in test [5] it was 8.81 µM; in test [10], 8.08 µM; in [6], 7.36 µM. Moreover, the TGI in test [7] was 8.14 µM; in [8], > 22 µM; in test [9], > 22 µM.

In the case of `CC1=C(C(=O)Nc2ccc(F)c(Cl)c2)C(c2ccc(Cl)cc2)NC(=O)N1` (stereo not drawn), the GI50 in test [1] was 19.5 µM; in test [2], 14.1 µM; in test [3] it was 18.4 µM; in test [10] it was 0.0173 µM; in [6], 17.8 µM; in test [7] it was 19.1 µM. Also, the GI50 in test [8] is 15.1 µM; in test [9], 12.6 µM. Further, the TGI in test [1] was found to be 41.1 µM; in [2], 27.2 µM; in [3], 36.8 µM; in test [10], 21.3 µM; in test [6], 38.4 µM; in test [7] it was 35.3 µM. Further, the TGI in [8] came to 30.1 µM; in [9] it was 31.9 µM.

`O=C(O)CCSC(=O)Nc1cccc(F)c1`: the TGI in [1], in test [3], in test [4], in test [10], in test [6] and in [7] was > 100 µM throughout. Besides, the TGI in test [8] is > 100 µM.

Take `CC1=C(C#N)C23C(=O)c4ccccc4C(O)=C2C(=O)C=CC3(O)N1Cc1ccccc1` (stereo not drawn): the GI50 was 15 µM in test [1]; 47.4 µM in test [2]; 38.5 µM in test [3]; 38.6 µM in test [5]; 32.9 µM in [10]; 32 µM in [6]. Further, the figures for the GI50 in test [7], in test [8] and in test [9] were 33 µM, 18 µM and 23.9 µM, respectively. In addition, the TGI in test [1], in test [2], in [3], in test [5], in test [10] and in test [6] was > 100 µM each time. Further, the TGI in test [7] is > 100 µM; in [8] it was > 100 µM; in test [9], 72.4 µM.

For `O=C1NC2(CCCCC2)C2CCCCC(O)C12` (stereo not drawn), the TGI in test [1], in test [2], in test [3], in test [4], in test [10] and in [6] was > 100 µM each time. Moreover, the TGI in test [7], in test [8] and in [9] was > 100 µM each time.

Consider `CC(=O)[O][Hg][c]1c(N)c(C)cc(C)c1F`, for which the GI50 was 1.01 µM in [1]; 1.5 µM in test [2]; 1.22 µM in test [4]; 0.749 µM in test [10]; 1.01 µM in [6]; 1.56 µM in test [7]. For the same compound, the figures for the GI50 in test [8] and in test [9] were 1.64 µM and 0.939 µM, respectively. Moreover, the TGI in [1] stood at 2.55 µM; in test [2], 3.2 µM; in test [4], 7.12 µM; in test [10], 4.03 µM; in test [6], 2.28 µM; in test [7] it was 3.23 µM. Also, the TGI in [8] was determined as 3.15 µM; in [9] it was 2.79 µM.

`CC(=O)OC1COC(n2c(=S)n(-c3ccc(C)cc3)c(=O)c3ccccc32)C(OC(C)=O)C1OC(C)=O` (stereo not drawn): the TGI in test [1], in test [2], in [3], in test [4], in test [5] and in test [6] was > 100 µM throughout. In addition, the TGI in test [7], in [8] and in test [9] was > 100 µM each time.

Consider `O=[S@@]1Nc2ccc(Br)cc2S1`, for which the TGI in [2] is > 100 µM; in [4], > 100 µM; in test [10], > 100 µM; in [6], > 100 µM; in test [7] it was > 100 µM; in [8], 7.43 µM. In addition, in [9], the TGI was > 100 µM.

For the compound `COC(=O)Nc1nc2ccc(S(=O)c3ccccc3)cc2[nH]1` (stereo not drawn), the GI50 is 4.58 µM in [1]; 4.44 µM in [2]; 14.8 µM in [3]; 5.86 µM in [4]; 7.73 µM in test [5]; 7.39 µM in test [6]. For the same compound, the figures for the GI50 in test [7], in test [8] and in test [9] were 3.29 µM, 8 µM and 7.51 µM, respectively. The TGI in test [1], in test [2], in test [3], in [4], in test [5] and in test [6] was > 100 µM throughout. The TGI in test [7], in test [8] and in test [9] was > 100 µM in each case.

For `CNC(=O)c1cc(Oc2ccc3nc(NC(=O)Nc4ccc(Cl)c(C(F)(F)F)c4)sc3c2)ccn1`, the GI50 is 2.34 µM in test [3], 5.69 µM in [7] and 2.02 µM in test [9]. For the same compound, the figures for the TGI in test [3], in test [7] and in test [9] were 5.25 µM, 47 µM and 5.12 µM, respectively.

With `CC1CN1P1(N2CC2C)=NP(N2CC2C)(N2CC2C)=NP(N2CC2C)(N2CC2C)=N1` (stereo not drawn), the TGI in [1], in test [3], in test [4], in test [5], in [10] and in test [6] was > 50 µM throughout. Moreover, the TGI in test [8] and in test [9] was > 50 µM throughout.

For the compound `COc1ccc(-c2cc(=O)c3ccc(O)cc3o2)c(OC)c1OC`, the TGI in test [2], in test [5], in [10], in test [6], in test [7] and in [9] was > 100 µM in each case.

`CC(=O)OC(C)C(=O)C1c2cccc(O)c2C(=O)c2c(O)cc(C)cc21` (stereo not drawn): the TGI in test [1] came to 1.55 µM; in test [3] it was 2.24 µM; in [4], 8.17 µM; in test [5], 1.56 µM; in [10] it was 9.03 µM; in [6] it was 1.43 µM. Also, the TGI in test [7] amounted to 1.44 µM; in [8], 0.744 µM; in [9] it was 1.66 µM.

On to `CCOC(=O)C1=C(C)CC2C(=O)OC(=O)C2C1(C)C` (stereo not drawn), for which the TGI in test [1], in test [3], in [4], in test [10], in [6] and in test [7] was > 100 µM each time. The TGI in [8] and in test [9] was > 100 µM in each case.

Consider `CSCCCN(CCCSC)CCCSC`, for which the TGI in test [1], in test [2], in [3], in test [4], in [5] and in test [10] was > 100 µM throughout. Further, the TGI in test [6], in test [8] and in test [9] was > 100 µM in each case.

Take `CCc1ccc2c(c1)C(=O)c1c-2n(CCCBr)c(=O)c2cc([N+](=O)[O-])ccc12`: the GI50 in [1] is > 50 µM; in test [2], 32.2 µM; in test [3], > 50 µM; in test [5] it was 48.1 µM; in [10] it was > 50 µM; in [6], > 50 µM. Moreover, the GI50 in test [7] was 31.9 µM; in [8], > 50 µM; in [9], 27.9 µM. Besides, the TGI in test [1], in [2], in test [3], in test [5], in [10] and in test [6] was > 50 µM throughout. Besides, the TGI in test [7], in [8] and in test [9] was > 50 µM each time.

For the compound `Cc1cc2nc(C(Cl)Cl)nc(-c3ccc(Cl)cc3)n2n1`, the GI50 in test [1] was 0.745 µM; in test [3], 0.964 µM; in test [4], 1.01 µM; in test [5], 1.06 µM; in test [10], 1.39 µM; in test [6] it was 0.491 µM. The GI50 was 1.42 µM in [8] and 1.38 µM in [9]. The TGI in test [1] was 3.47 µM; in test [3], > 100 µM; in test [4] it was > 100 µM; in test [5] it was 4.38 µM; in test [10], > 28.5 µM; in test [6], 1.87 µM. In addition, the values for the TGI in test [8] and in [9] were 3.92 µM and 5.28 µM, respectively.

For the compound `COc1cccc(NC(=O)CC(=O)n2nc(C)c(N=Nc3ccccc3)c2C)c1`, the TGI in test [2], in test [3], in test [4], in [5], in test [6] and in test [8] was > 100 µM each time. The TGI in test [9] was > 100 µM.
